Publication PMC7656518 (ACS chemical biology, 2018)
Positions of bridges follow the written chain, without caps; N, C: chain ends. Residues, ends and D or L forms follow the SMILES beside them.

How the values were obtained:
rat INS-1/832-13 β-cells = assay: Alamar Blue β-cell viability; conditions: 30 μM peptide
[1] = Amyloid formation in presence of anionic large unilamellar vesicles; format: physicochemical; conditions: LUV's 25% POPS / 75% POPC, final concentration 400 μM
[2] = Thioflavin-T fluorescence amyloid formation kinetics and TEM in Tris buffer
[3] = tested on: hCT(a), hAMY1(a), hAMY2(a), hAMY3(a) receptors; assay: cAMP production, overall statement for the four amylin-responsive receptors; format: cell-based, human; conditions: stimulation of cAMP production at hCT(a)
[4] = Thioflavin-T fluorescence amyloid formation kinetics and TEM in PBS; format: physicochemical; conditions: PBS (10 mM phosphate 140 mM KCl) pH 7.4
hAMY2(a) receptor = hAMY2(a) receptor (Homo sapiens, UniProt O60895+P30988); assay: cAMP production; format: cell-based
Sequence of hAMY2(a) receptor (O60895 43-175 partner, one chain of several): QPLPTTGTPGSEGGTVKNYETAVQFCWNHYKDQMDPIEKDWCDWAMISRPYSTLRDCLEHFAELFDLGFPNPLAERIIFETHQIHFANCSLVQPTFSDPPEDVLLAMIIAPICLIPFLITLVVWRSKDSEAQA

hAMY1(a) receptor = hAMY1(a) receptor (Homo sapiens, UniProt O60894+P30988); assay: cAMP production; format: cell-based
Sequence of hAMY1(a) receptor (O60894 27-148 partner, one chain of several): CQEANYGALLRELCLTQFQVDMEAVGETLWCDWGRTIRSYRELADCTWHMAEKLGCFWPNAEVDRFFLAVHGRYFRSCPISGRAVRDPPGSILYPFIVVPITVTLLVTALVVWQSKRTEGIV

hCT(a) receptor = target: T1, hCT(a) receptor (Homo sapiens, UniProt P30988); assay: cAMP production; format: cell-based
T1 sequence (P30988 25-474): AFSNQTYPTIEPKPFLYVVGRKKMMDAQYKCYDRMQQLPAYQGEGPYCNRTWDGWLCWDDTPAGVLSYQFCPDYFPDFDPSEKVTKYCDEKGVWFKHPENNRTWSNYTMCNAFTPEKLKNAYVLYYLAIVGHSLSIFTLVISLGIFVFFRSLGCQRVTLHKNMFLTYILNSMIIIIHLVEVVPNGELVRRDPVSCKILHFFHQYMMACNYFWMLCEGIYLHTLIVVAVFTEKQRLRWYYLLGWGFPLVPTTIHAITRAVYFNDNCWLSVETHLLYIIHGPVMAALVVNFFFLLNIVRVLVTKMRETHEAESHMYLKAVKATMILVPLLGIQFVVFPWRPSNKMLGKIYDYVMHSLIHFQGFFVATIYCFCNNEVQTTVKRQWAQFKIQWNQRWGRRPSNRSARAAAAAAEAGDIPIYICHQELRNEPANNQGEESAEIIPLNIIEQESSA

hAMY3(a) receptor = target: T2, hAMY3(a) receptor (Homo sapiens, UniProt O60896+P30988); assay: cAMP production; format: cell-based
T2 sequence (P30988 25-474): T1 sequence (P30988 25-474)
T2 sequence (O60896 24-148 partner): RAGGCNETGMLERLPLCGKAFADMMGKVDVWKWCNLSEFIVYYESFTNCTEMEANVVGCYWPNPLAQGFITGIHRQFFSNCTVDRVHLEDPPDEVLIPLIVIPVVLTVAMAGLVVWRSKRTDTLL

SMILES: CC[C@H](C)[C@H](NC(=O)[C@H](C)NC(=O)CNC(=O)[C@H](CC(C)C)NC(=O)[C@H](CCCCN)NC(=O)[C@H](CC(N)=O)NC(=O)[C@H](CO)NC(=O)[C@H](CO)NC(=O)[C@@H]1CCCN1C(=O)[C@H](C)NC(=O)[C@H](CC(C)C)NC(=O)[C@H](Cc1ccccc1)NC(=O)[C@H](CC(N)=O)NC(=O)[C@H](C)NC(=O)[C@H](CC(C)C)NC(=O)[C@H](CCCNC(=N)N)NC(=O)[C@H](CCC(N)=O)NC(=O)[C@@H](NC(=O)[C@H](CCC(=O)O)NC(=O)[C@@H]1CSSC[C@H](NC(=O)[C@@H](N)CCCCN)C(=O)NCC(=O)N[C@@H]([C@@H](C)O)C(=O)N[C@@H](C)C(=O)N[C@@H]([C@@H](C)O)C(=O)N1)[C@@H](C)O)C(=O)N[C@@H](Cc1ccccc1)C(=O)N[C@@H](CO)C(=O)N1CCC[C@H]1C(=O)N[C@H](C(=O)N[C@@H](CCCCN)C(=O)N[C@@H](CCSC)C(=O)NCC(=O)N[C@@H](CO)C(=O)N[C@@H](CC(N)=O)C(=O)N[C@H](C(=O)N[C@@H](Cc1ccc(O)cc1)C(N)=O)[C@@H](C)O)[C@@H](C)O [b-amylin] (H-KCGTATCETQRLANFLAPSSNKLGAIFSPTKMGSNTY-NH2; disulfide 2-7; N-terminus assumed)
- toxicity (in words) (rat INS-1/832-13 β-cells; 24 h incubation): did not exhibit any toxicity
- toxicity (in words) (rat INS-1/832-13 β-cells; 84 h incubation): not toxic
- amyloid formation in presence of LUV's [1]: no amyloid formation was detected
- increase in thioflavin-T fluorescence signal ([2]; 16 μM peptide, 32 μM thioflavin-T, pH 7.4, 25°C, 20 mM Tris, 6 days of incubation): no increase in thioflavin-T fluorescence signal was observed
- amyloid formation at a range of peptide concentrations ([2]; 20 mM Tris pH 7.4, highest concentration examined 64 μM): no amyloid was detected
- fold less potent than h-amylin [3]: at least 300 fold
- amyloid fibrils by TEM [4]: no amyloid fibrils were detected
- increase in thioflavin-T fluorescence signal ([4]; 7 days of incubation): no significant increase in thioflavin-T fluorescence signal was observed
- Emax (hAMY2(a) receptor; COS-7): 73.9 ± 4.27%
- EC50 (hAMY2(a) receptor; SEM): 1170 nM
- Fold-change (hAMY2(a) receptor; potency of b-amylin relative to h-amylin at hAMY2(a)): > −600
- Emax (hAMY1(a) receptor; COS-7): 83.1 ± 10.6%
- EC50 (hAMY1(a) receptor; SEM): 912 nM
- agonist character (hAMY1(a) receptor; hAMY1(a), cAMP production): full agonist
- Fold-change (hAMY1(a) receptor; potency of b-amylin relative to h-amylin at hAMY1(a)): > −5000
- Emax (hCT(a) receptor; COS-7): 62.9 ± 8.25%
- EC50 (hCT(a) receptor; SEM): 1550 nM
- agonist character (hCT(a) receptor; hCT(a), cAMP production): partial agonist
- Fold-change (hCT(a) receptor; potency of b-amylin relative to h-amylin at hCT(a)): > −400
- Emax (hAMY3(a) receptor; COS-7): 62.4 ± 9.31%
- EC50 (hAMY3(a) receptor; SEM): 1350 nM
- Fold-change (hAMY3(a) receptor; potency of b-amylin relative to h-amylin at hAMY3(a)): > −2000
